Test results as given in PubChem BioAssay (NCI).
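Interpolation was linear, between the two tested concentrations surrounding the appropriate level; five concentrations were tested over 48 hours in 96-well plates. Abbreviation: GI50, concentration required for 50% inhibition of growth. TGI: concentration producing complete growth inhibition.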

What was measured:
Assay in all cases: NCI anticancer screen, dose series, 48 h
SK-MEL-28 melanoma = tested on: SK-MEL-28 melanoma
CCRF-CEM leukemia = tested on: CCRF-CEM leukemia
SK-MEL-2 melanoma = tested on: SK-MEL-2 melanoma
NCI-H522 lung = tested on: NCI-H522 lung
EKVX NSCLC = tested on: EKVX NSCLC
OVCAR-4 ovarian = tested on: OVCAR-4 ovarian
NCI-H460 lung = tested on: NCI-H460 lung
SNB-75 CNS = tested on: SNB-75 CNS
SW-620 colon = tested on: SW-620 colon
UACC-62 melanoma = tested on: UACC-62 melanoma
HCC-2998 colon = tested on: HCC-2998 colon
A549 NSCLC = tested on: A549 NSCLC
MDA-MB-231 breast = tested on: MDA-MB-231 breast
SN12C renal = tested on: SN12C renal
SK-MEL-5 melanoma = tested on: SK-MEL-5 melanoma
HOP-62 NSCLC = tested on: HOP-62 NSCLC
NCI/ADR-RES ovarian = tested on: NCI/ADR-RES ovarian
K-562 leukemia = tested on: K-562 leukemia
HCT-116 colon = tested on: HCT-116 colon
MCF7 breast = tested on: MCF7 breast
TK-10 renal = tested on: TK-10 renal
SF-295 CNS = tested on: SF-295 CNS
HT29 colon = tested on: HT29 colon
OVCAR-8 ovarian = tested on: OVCAR-8 ovarian
MALME-3M melanoma = tested on: MALME-3M melanoma
BT-549 breast = tested on: BT-549 breast
MDA-MB-435 = tested on: MDA-MB-435
SR leukemia = tested on: SR leukemia
A498 renal = tested on: A498 renal
DU-145 prostate = tested on: DU-145 prostate
UACC-257 melanoma = tested on: UACC-257 melanoma
T-47D breast = tested on: T-47D breast
HL-60(TB) leukemia = tested on: HL-60(TB) leukemia
CAKI-1 renal = tested on: CAKI-1 renal
OVCAR-5 ovarian = tested on: OVCAR-5 ovarian
SF-268 CNS = tested on: SF-268 CNS
HS 578T breast = tested on: HS 578T breast
MOLT-4 leukemia = tested on: MOLT-4 leukemia
COLO 205 colon = tested on: COLO 205 colon
SK-OV-3 ovarian = tested on: SK-OV-3 ovarian
RPMI-8226 leukemia = tested on: RPMI-8226 leukemia

Structure (SMILES): C#Cc1ccc(NC(=O)c2ccc(/C=C/C(=O)c3nccn3C)cc2)c(F)c1
- GI50 (SK-MEL-28 melanoma): > 50000 nM
- TGI (SK-MEL-28 melanoma): > 50000 nM
- GI50 (CCRF-CEM leukemia): 1080 nM
- TGI (CCRF-CEM leukemia): 5850 nM
- GI50 (SK-MEL-2 melanoma): > 50000 nM
- TGI (SK-MEL-2 melanoma): > 50000 nM
- GI50 (NCI-H522 lung): 2160 nM
- TGI (NCI-H522 lung): > 50000 nM
- GI50 (EKVX NSCLC): 1410 nM
- TGI (EKVX NSCLC): > 50000 nM
- GI50 (OVCAR-4 ovarian): 2650 nM
- TGI (OVCAR-4 ovarian): > 50000 nM
- GI50 (NCI-H460 lung): 1120 nM
- TGI (NCI-H460 lung): 2680 nM
- GI50 (SNB-75 CNS): 1000 nM
- TGI (SNB-75 CNS): 4340 nM
- GI50 (SW-620 colon): 1330 nM
- TGI (SW-620 colon): > 50000 nM
- GI50 (UACC-62 melanoma): 1930 nM
- TGI (UACC-62 melanoma): > 50000 nM
- GI50 (HCC-2998 colon): 1740 nM
- TGI (HCC-2998 colon): > 50000 nM
- GI50 (A549 NSCLC): 1510 nM
- TGI (A549 NSCLC): > 50000 nM
- GI50 (MDA-MB-231 breast): 2140 nM
- TGI (MDA-MB-231 breast): 22400 nM
- GI50 (SN12C renal): 1440 nM
- TGI (SN12C renal): > 50000 nM
- GI50 (SK-MEL-5 melanoma): 2040 nM
- TGI (SK-MEL-5 melanoma): > 50000 nM
- GI50 (HOP-62 NSCLC): 1540 nM
- TGI (HOP-62 NSCLC): > 50000 nM
- GI50 (NCI/ADR-RES ovarian): 1500 nM
- TGI (NCI/ADR-RES ovarian): > 50000 nM
- GI50 (K-562 leukemia): 853 nM
- TGI (K-562 leukemia): > 50000 nM
- GI50 (HCT-116 colon): 876 nM
- TGI (HCT-116 colon): 1940 nM
- GI50 (MCF7 breast): 1290 nM
- TGI (MCF7 breast): > 50000 nM
- GI50 (TK-10 renal): > 50000 nM
- TGI (TK-10 renal): > 50000 nM
- GI50 (SF-295 CNS): 1740 nM
- TGI (SF-295 CNS): 16800 nM
- GI50 (HT29 colon): 1490 nM
- TGI (HT29 colon): > 50000 nM
- GI50 (OVCAR-8 ovarian): 1910 nM
- TGI (OVCAR-8 ovarian): > 50000 nM
- GI50 (MALME-3M melanoma): 3760 nM
- TGI (MALME-3M melanoma): > 50000 nM
- GI50 (BT-549 breast): 823 nM
- TGI (BT-549 breast): 2250 nM
- GI50 (MDA-MB-435): 1860 nM
- TGI (MDA-MB-435): > 50000 nM
- GI50 (SR leukemia): 545 nM
- TGI (SR leukemia): 4440 nM
- GI50 (A498 renal): 2500 nM
- TGI (A498 renal): > 50000 nM
- GI50 (DU-145 prostate): 1810 nM
- TGI (DU-145 prostate): 45600 nM
- GI50 (UACC-257 melanoma): > 50000 nM
- TGI (UACC-257 melanoma): > 50000 nM
- GI50 (T-47D breast): 1840 nM
- TGI (T-47D breast): > 50000 nM
- GI50 (HL-60(TB) leukemia): 844 nM
- TGI (HL-60(TB) leukemia): 2430 nM
- GI50 (CAKI-1 renal): 2270 nM
- TGI (CAKI-1 renal): > 50000 nM
- GI50 (OVCAR-5 ovarian): 1770 nM
- TGI (OVCAR-5 ovarian): > 50000 nM
- GI50 (SF-268 CNS): 1630 nM
- TGI (SF-268 CNS): > 50000 nM
- GI50 (HS 578T breast): 1880 nM
- TGI (HS 578T breast): > 50000 nM
- GI50 (MOLT-4 leukemia): 1370 nM
- TGI (MOLT-4 leukemia): 5420 nM
- GI50 (COLO 205 colon): 4020 nM
- TGI (COLO 205 colon): > 50000 nM
- GI50 (SK-OV-3 ovarian): 2530 nM
- TGI (SK-OV-3 ovarian): > 50000 nM
- GI50 (RPMI-8226 leukemia): 522 nM
- TGI (RPMI-8226 leukemia): 2140 nM
